From US20230092890A1, “1, 3, 4-Oxadiazole derivative compounds as histone deacetylase 6 inhibitor, and the pharmaceutical composition comprising the same” (Chong Kun Dang Pharmaceutical Corp., priority 2019, published 2023) come the findings set out here.

One assay addresses T1, HDAC1 (Homo sapiens, UniProt Q13547).
T1 construct: purchased Enzolifesciences BML-AK511
As to the kind of experiment: HDAC enzyme activity inhibition (in vitro), HDAC1 Fluorimetric Drug Discovery Assay Kit. The class given is biochemical. The note with it: samples at 100, 1000 and 10000 nM; 37° C. 60 minutes; fluorescence Ex 390, Em 460; read-out: HDAC1 IC50. Put shortly:
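Fluorimetric read-out (Ex 390, Em 460) after a 60 min 37° C enzyme reaction and 30 min 37° C developer step. Tested levels: 0.1-1000 nM (0.1, 1, 10, 100, 1000) on recombinant human HDAC6; 100, 1000 and 10000 nM on HDAC1 kit enzyme.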

In another assay the target is T2, HDAC6 human recombinant (Homo sapiens, UniProt Q9UBN7).
T2 construct: purchased Calbiochem 382180
T2 sequence (Q9UBN7 1-1215): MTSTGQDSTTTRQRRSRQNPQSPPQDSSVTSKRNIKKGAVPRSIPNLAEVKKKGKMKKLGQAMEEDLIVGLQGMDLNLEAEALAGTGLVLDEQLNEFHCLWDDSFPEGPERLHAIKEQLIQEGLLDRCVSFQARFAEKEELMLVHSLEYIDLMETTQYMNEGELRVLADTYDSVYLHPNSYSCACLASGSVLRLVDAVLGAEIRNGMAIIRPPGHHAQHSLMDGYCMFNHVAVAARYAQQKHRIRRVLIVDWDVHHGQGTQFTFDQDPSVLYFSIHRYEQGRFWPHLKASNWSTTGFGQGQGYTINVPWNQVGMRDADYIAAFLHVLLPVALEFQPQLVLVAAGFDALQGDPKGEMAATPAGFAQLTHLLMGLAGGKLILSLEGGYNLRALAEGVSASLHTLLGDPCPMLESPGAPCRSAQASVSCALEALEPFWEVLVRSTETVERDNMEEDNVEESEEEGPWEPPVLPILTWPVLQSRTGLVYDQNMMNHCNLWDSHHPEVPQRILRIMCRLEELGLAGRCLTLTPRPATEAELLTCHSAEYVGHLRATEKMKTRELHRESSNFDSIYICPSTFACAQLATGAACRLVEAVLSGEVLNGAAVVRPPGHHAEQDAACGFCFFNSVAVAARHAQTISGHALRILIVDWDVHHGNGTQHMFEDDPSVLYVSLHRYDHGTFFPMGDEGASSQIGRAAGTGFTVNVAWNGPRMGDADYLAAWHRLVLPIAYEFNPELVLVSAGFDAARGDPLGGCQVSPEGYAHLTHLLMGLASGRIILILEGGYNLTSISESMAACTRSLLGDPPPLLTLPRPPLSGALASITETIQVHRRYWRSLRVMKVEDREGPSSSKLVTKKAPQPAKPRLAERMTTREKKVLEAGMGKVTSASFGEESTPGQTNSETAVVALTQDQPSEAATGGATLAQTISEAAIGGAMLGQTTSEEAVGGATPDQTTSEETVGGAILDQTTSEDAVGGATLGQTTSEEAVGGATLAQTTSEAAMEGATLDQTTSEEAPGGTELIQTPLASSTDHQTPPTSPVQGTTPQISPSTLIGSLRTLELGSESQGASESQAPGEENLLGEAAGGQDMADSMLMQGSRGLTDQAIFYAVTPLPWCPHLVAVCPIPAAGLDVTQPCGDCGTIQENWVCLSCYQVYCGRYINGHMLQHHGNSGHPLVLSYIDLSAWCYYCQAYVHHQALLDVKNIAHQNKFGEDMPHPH
In words: HDAC enzyme activity inhibition (in vitro), HDAC6 assay. The class given is biochemical. The note with it: samples at 0.1, 1, 10, 100 and 1000 nM; 37° C. 60 minutes; fluorescence Ex 390, Em 460; read-out: HDAC6 IC50. Put shortly:
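Fluorescence (Ex 390, Em 460) read after a 37° C, 60 min enzyme reaction and a further 30 min developer step at 37° C. Uses recombinant human HDAC6; HDAC1 arm dosed at 100, 1000, 10000 nM.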

T1 sequence (Q13547 whole entry): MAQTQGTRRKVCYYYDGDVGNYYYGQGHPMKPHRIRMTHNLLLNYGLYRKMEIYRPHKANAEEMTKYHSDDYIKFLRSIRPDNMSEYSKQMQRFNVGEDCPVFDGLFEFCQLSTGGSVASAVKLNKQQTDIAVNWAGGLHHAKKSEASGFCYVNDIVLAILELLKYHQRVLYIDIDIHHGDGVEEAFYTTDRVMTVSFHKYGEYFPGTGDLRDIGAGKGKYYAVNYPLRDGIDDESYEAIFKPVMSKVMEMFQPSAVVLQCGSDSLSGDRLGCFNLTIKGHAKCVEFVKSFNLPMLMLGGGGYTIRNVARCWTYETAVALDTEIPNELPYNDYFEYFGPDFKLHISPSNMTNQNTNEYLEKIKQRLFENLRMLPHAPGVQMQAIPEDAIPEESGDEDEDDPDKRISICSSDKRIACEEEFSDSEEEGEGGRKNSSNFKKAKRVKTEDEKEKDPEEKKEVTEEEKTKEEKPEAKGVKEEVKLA

Broadly, the IC50 is the concentration that gives 50% inhibition. Consider `CC(C)(C)OC(=O)N1CC=C(c2ccc3c(c2)sc(=O)n3Cc2ccc(-c3nnc(C(F)F)o3)cn2)CC1` [Compound 238, tert-butyl 4-(3-((5-(5-(difluoromethyl)-1,3,4-oxadiazole-2-yl)pyridine-2-yl)methyl)-2-oxo-2,3-dihydrobenzo[d]thiazole-6-yl)-3,6-dihydropyridine-1(2H)-carboxylate], for which the figures for the IC50 at HDAC1 and at HDAC6 human recombinant were over 10000 nM and 203 nM, respectively.
For the molecule `O=c1n(Cc2ccc(-c3nnc(C(F)F)o3)cn2)c2cc(F)c(-c3cccc4[nH]ccc34)cc2n1C1CCN(CC(F)(F)F)CC1` [Compound 239, 1-((5-(5-(difluoromethyl)-1,3,4-oxadiazole-2-yl)pyridine-2-yl)methyl)-6-fluoro-5-(1H-indole-4-yl)-3-(1-(2,2,2-trifluoroethyl)piperidine-4-yl)-1,3-dihydro-2H-benzo[d]imidazole-2-one], the IC50 at HDAC1 was over 10000 nM; at HDAC6 human recombinant it was 51 nM.
The like results for `O=c1n(Cc2ccc(-c3nnc(C(F)F)o3)cn2)c2cc(F)c(-c3cccnc3)cc2n1C1CCN(CC(F)(F)F)CC1` [Compound 240, 1-((5-(5-(difluoromethyl)-1,3,4-oxadiazole-2-yl)pyridine-2-yl)methyl)-6-fluoro-5-(pyridine-3-yl)-3-(1-(2,2,2-trifluoroethyl)piperidine-4-yl)-1,3-dihydro-2H-benzo[d]imidazole-2-one] were, in that order, over 10000 nM and 27 nM.
`O=c1n(Cc2ccc(-c3nnc(C(F)F)o3)cn2)c2cc(F)c(-c3cccc4[nH]ccc34)cc2n1C1CCN(CC(F)(F)C(F)F)CC1` [Compound 241, 1-((5-(5-(difluoromethyl)-1,3,4-oxadiazole-2-yl)pyridine-2-yl)methyl)-6-fluoro-5-(1H-indole-4-yl)-3-(1-(2,2,3,3-tetrafluoropropyl)piperidine-4-yl)-1,3-dihydro-2H-benzo[d]imidazole-2-one]: the IC50 on HDAC1 is over 10000 nM; at HDAC6 human recombinant, 94 nM.
In the same order, the values of `O=c1n(Cc2ccc(-c3nnc(C(F)F)o3)cn2)c2cc(F)c(-c3cccnc3)cc2n1C1CCN(CC(F)(F)C(F)F)CC1` [Compound 242, 1-((5-(5-(difluoromethyl)-1,3,4-oxadiazole-2-yl)pyridine-2-yl)methyl)-6-fluoro-5-(pyridine-3-yl)-3-(1-(2,2,3,3-tetrafluoropropyl)piperidine-4-yl)-1,3-dihydro-2H-benzo[d]imidazole-2-one] are over 10000 nM and 46 nM.
On to `O=C(CO)N1CCC(n2c(=O)n(Cc3ccc(-c4nnc(C(F)F)o4)cn3)c3cc(Cl)ccc32)CC1` [Compound 243, 5-chloro-3-((5-(5-(difluoromethyl)-1,3,4-oxadiazole-2-yl)pyridine-2-yl)methyl)-1-(1-(2-hydroxyacetyl)piperidine-4-yl)-1,3-dihydro-2H-benzo[d]imidazole-2-one], for which the half-maximal inhibitory concentration (IC50) is over 10000 nM at HDAC1 and 17 nM at HDAC6 human recombinant.
In the same order, the values of `COC(=O)c1cc2ccc(-c3ccc4c(c3)n(C)c(=O)n4Cc3ccc(-c4nnc(C(F)F)o4)cn3)cc2[nH]1` [Compound 244, methyl 6-(1-((5-(5-(difluoromethyl)-1,3,4-oxadiazole-2-yl)pyridine-2-yl)methyl)-3-methyl-2-oxo-2,3-dihydro-1H-benzo[d]imidazole-5-yl)-1H-indole-2-carboxylate] are over 10000 nM and 74 nM.
The like results for `O=c1oc2ccccc2n1Cc1ccc(-c2nnc(C(F)F)o2)cc1F` [Compound 245, 3-(4-(5-(difluoromethyl)-1,3,4-oxadiazole-2-yl)-2-fluorobenzyl)benzo[d]oxazole-2(3H)-one] were, in that order, over 10000 nM and 684 nM.
In the same order, the values of `O=c1oc2ccccc2n1Cc1ccc(-c2nnc(C(F)F)o2)cn1` [Compound 246, 3-((5-(5-(difluoromethyl)-1,3,4-oxadiazole-2-yl)pyridine-2-yl)methyl)benzo[d]oxazole-2(3H)-one] are over 10000 nM and 23 nM.
